In patent US10227357B2, “Compounds and methods for kinase modulation, and indications therefor” (Plexxikon Inc., priority 2012, dated 2019):

Legend:
c-kit kinase = target: T1, c-kit kinase (Homo sapiens, UniProt P10721); assay: c-Kit biochemical assay, AlphaScreen, 10 μM ATP; details: c-kit biochemical inhibitory activity; read-out: Biochemical activity (IC50 μM) Kit
T1 construct: The c-kit (or kinase domain thereof) is an active kinase in AlphaScreen; poly-Histidine tag (in-house protein only) (cleaved yes); host or cells: E. coli BL21(DE3)RIL, co-expressed with PTP1B
T1 sequence (P10721 26-976): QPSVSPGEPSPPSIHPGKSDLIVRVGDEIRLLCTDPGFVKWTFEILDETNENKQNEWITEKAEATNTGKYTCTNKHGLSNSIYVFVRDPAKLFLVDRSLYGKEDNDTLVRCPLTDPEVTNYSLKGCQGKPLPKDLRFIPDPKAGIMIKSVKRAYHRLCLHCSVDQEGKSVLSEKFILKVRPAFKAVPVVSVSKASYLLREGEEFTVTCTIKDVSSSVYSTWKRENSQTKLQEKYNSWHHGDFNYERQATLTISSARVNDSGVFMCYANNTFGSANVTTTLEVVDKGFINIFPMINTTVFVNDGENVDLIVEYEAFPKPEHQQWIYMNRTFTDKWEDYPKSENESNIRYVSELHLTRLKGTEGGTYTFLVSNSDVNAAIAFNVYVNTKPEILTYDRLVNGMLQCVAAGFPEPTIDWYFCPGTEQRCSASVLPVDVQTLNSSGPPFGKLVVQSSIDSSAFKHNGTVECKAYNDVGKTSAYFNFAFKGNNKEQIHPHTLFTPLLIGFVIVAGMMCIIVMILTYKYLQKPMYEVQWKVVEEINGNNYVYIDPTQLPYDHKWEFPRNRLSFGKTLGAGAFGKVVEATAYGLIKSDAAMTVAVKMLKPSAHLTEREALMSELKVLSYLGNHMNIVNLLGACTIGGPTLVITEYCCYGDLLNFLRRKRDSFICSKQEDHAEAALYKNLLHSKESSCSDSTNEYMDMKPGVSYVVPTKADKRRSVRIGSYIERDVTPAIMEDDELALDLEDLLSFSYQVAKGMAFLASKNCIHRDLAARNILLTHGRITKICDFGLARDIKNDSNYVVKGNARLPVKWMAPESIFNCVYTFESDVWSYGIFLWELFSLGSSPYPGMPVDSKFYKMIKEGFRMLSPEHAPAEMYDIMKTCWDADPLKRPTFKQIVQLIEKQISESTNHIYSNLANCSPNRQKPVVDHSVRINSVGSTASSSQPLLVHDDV
In short: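 His-tagged c-Kit expressed in E. coli with co-expressed PTP1B (dephosphorylated), tag removed; 0.1 ng per reaction with biotinylated-peptide substrate in 50 mM HEPES pH 7.2, 5 mM MgCl2, 5 mM MnCl2, 5% DMSO, 10 μM ATP, 1 h at room temperature. Phosphorylation detected by AlphaScreen (streptavidin donor, PY20 acceptor beads); IC50 from 8-point 1:3 dilution series.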

c-kit mutant D816V = target: T2, c-kit mutant D816V (Homo sapiens, UniProt P10721, D816V/DEL694-753); assay: c-Kit mutant D816V biochemical assay, AlphaScreen; details: c-kit D816V biochemical inhibitory activity; read-out: Biochemical activity (IC50 μM) Kit D816V
T2 construct: residues 551-934, kinase insertion domain residues 694-753 deleted; 6x-histidine (N); made in house; host or cells: E. coli Arctic Express (DE3) RIL (Stratagene)
T2 sequence (P10721 with tags, fused parts or gaps DEL694-753/D816V): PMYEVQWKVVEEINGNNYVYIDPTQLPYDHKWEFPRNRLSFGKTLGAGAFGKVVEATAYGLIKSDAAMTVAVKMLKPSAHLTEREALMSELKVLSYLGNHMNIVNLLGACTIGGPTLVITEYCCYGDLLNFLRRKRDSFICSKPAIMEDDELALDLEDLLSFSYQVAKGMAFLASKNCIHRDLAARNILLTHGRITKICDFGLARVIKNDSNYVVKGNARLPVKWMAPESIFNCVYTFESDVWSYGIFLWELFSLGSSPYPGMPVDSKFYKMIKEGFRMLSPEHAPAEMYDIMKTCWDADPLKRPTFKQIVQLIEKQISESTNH
In short: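 Purified His-tagged c-Kit D816V (E. coli-expressed) assayed in 25 mM HEPES pH 7.2 with Mg/Mn, 5% DMSO and 10 μM ATP, 30 min at room temperature, 8-point 1:3 dilutions. Phosphorylation detected by AlphaScreen with streptavidin donor and PY20 acceptor beads; IC50 from signal versus concentration.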

| Compound | IC50 (c-kit kinase) | IC50 (c-kit mutant D816V) |
| --- | --- | --- |
| C[C@H](NC(=O)N1CCN(c2ncnc3cc(-c4ccc(F)cc4)sc23)C[C@H]1C)c1cccc(F)c1 [P-0585, (2R)-N-[(1S)-1-(3-fluorophenyl)ethyl]-4-[6-(4-fluorophenyl)thieno[3,2-d]pyrimidin-4-yl]-2-methyl-piperazine-1-carboxamide] | 1 to 10 µM | 1 to 10 µM |
| Cc1n[nH]c2ncnc(-c3ccc(NS(=O)(=O)c4ccc(C(F)(F)F)cc4)cc3)c12 [P-0438, N-[4-(3-methyl-1H-pyrazolo[3,4-d]pyrimidin-4-yl)phenyl]-4-(trifluoromethyl)benzenesulfonamide] | 1 to 10 µM | 0.0001 to 1 µM |
| O=C(Nc1cccnc1)NC1CCN(c2ncnc3[nH]ccc23)CC1 [P-0508, 1-(3-pyridyl)-3-[1-(7H-pyrrolo[2,3-d]pyrimidin-4-yl)-4-piperidyl]urea] | 10 to 200 µM | 10 to 200 µM |
| O=C(Nc1ccc(OC(F)(F)F)cc1)N1CCN(c2ncnc3[nH]c(C#CC4CC4)cc23)CC1 [P-0053, 4-[6-(2-cyclopropylethynyl)-7H-pyrrolo[2,3-d]pyrimidin-4-yl]-N-[4-(trifluoromethoxy)phenyl]piperazine-1-carboxamide] | 1 to 10 µM | 10 to 200 µM |
| CC(C)(C)OC(=O)N1CCN(c2ncnc3[nH]c(-c4cccnc4)cc23)CC1 [P-0232, tert-butyl 4-[6-(3-pyridyl)-7H-pyrrolo[2,3-d]pyrimidin-4-yl]piperazine-1-carboxylate] | 10 to 200 µM | 10 to 200 µM |
| CC1(C)CN(c2ncnc3cc(-c4ccc(F)cc4)sc23)CCN1 [P-0595, 4-(3,3-dimethylpiperazin-1-yl)-6-(4-fluorophenyl)thieno[3,2-d]pyrimidine] | 10 to 200 µM | 10 to 200 µM |
| COc1cccc([C@H](C)NC(=O)N2CCN(c3ncnc4[nH]c(-c5cnn(C)c5)cc34)CC2)c1 [P-0093, N-[(1S)-1-(3-methoxyphenyl)ethyl]-4-[6-(1-methylpyrazol-4-yl)-7H-pyrrolo[2,3-d]pyrimidin-4-yl]piperazine-1-carboxamide] | 0.0001 to 1 µM | 0.0001 to 1 µM |
| Cc1cc2c(-c3ccc(NS(=O)(=O)c4ccc(C(F)(F)F)cc4)cc3)ncnc2[nH]1 [P-0317, N-[4-(6-methyl-7H-pyrrolo[2,3-d]pyrimidin-4-yl)phenyl]-4-(trifluoromethyl)benzenesulfonamide] | 10 to 200 µM | 0.0001 to 1 µM |
| O=C(NCc1ccc(F)cc1)N1CCN(c2ncnc3[nH]c(-c4cccnc4)cc23)CC1 [P-0222, N-[(4-fluorophenyl)methyl]-4-[6-(3-pyridyl)-7H-pyrrolo[2,3-d]pyrimidin-4-yl]piperazine-1-carboxamide] | 1 to 10 µM | 1 to 10 µM |
| Cn1cc(-c2cc3c(N4CCC(NS(=O)(=O)c5ccc(Cl)s5)CC4)ncnc3[nH]2)cn1 [P-0458, 5-chloro-N-[1-[6-(1-methylpyrazol-4-yl)-7H-pyrrolo[2,3-d]pyrimidin-4-yl]-4-piperidyl]thiophene-2-sulfonamide] | 10 to 200 µM | 0.0001 to 1 µM |
| Cc1ccc(S(=O)(=O)Nc2ccc(-c3ncnc4[nH]c(C)cc34)c(F)c2)cn1 [P-0286, N-[3-fluoro-4-(6-methyl-7H-pyrrolo[2,3-d]pyrimidin-4-yl)phenyl]-6-methyl-pyridine-3-sulfonamide] | 1 to 10 µM | 0.0001 to 1 µM |
| O=S(=O)(Nc1ccc(-c2ncnc3[nH]c(-c4ccc(F)cc4)cc23)cc1F)C1CC1 [P-0410, N-[2-fluoro-4-[6-(4-fluorophenyl)-7H-pyrrolo[2,3-d]pyrimidin-4-yl]phenyl]cyclopropanesulfonamide] | 1 to 10 µM | 0.0001 to 1 µM |
| C[C@@H]1CN(c2ncnc3cc(-c4ccc(F)cc4)sc23)CCN1C(=O)N[C@H](C)c1ccc(F)cc1 [P-0606, (2R)-N-[(1R)-1-(4-fluorophenyl)ethyl]-4-[6-(4-fluorophenyl)thieno[3,2-d]pyrimidin-4-yl]-2-methyl-piperazine-1-carboxamide] | 10 to 200 µM | 1 to 10 µM |
| CC1(C)C=C(c2cc3c(N4CCC(NS(=O)(=O)c5ccc(OC(F)(F)F)cc5)CC4)ncnc3[nH]2)CC(C)(C)N1 [P-0662, N-[1-[6-(2,2,6,6-tetramethyl-1,3-dihydropyridin-4-yl)-7H-pyrrolo[2,3-d]pyrimidin-4-yl]-4-piperidyl]-4-(trifluoromethoxy)benzenesulfonamide] | 1 to 10 µM | 1 to 10 µM |
| Cc1ccc(S(=O)(=O)Nc2ccc(-c3ncnc4[nH]c(C)cc34)cc2)cc1 [P-0390, 4-methyl-N-[4-(6-methyl-7H-pyrrolo[2,3-d]pyrimidin-4-yl)phenyl]benzenesulfonamide] | 1 to 10 µM | 0.0001 to 1 µM |
| COCCOc1cc2ncnc(-c3ccc(NS(C)(=O)=O)cc3F)c2cc1OCCOC [P-0264, N-[4-[6,7-bis(2-methoxyethoxy)quinazolin-4-yl]-3-fluoro-phenyl]methanesulfonamide] | 10 to 200 µM | 0.0001 to 1 µM |

| Compound | IC50 (c-kit kinase) | IC50 (c-kit mutant D816V) |
| --- | --- | --- |
| Cc1nn(C)cc1-c1cc2ncnc(C3CCNCC3)c2s1 [P-0607, 6-(1,3-dimethylpyrazol-4-yl)-4-(4-piperidyl)thieno[3,2-d]pyrimidine] | 1 to 10 µM | 10 to 200 µM |
| O=C(NCc1ccc(Cl)cn1)N1CCN(c2ncnc3[nH]c(-c4cccnc4)cc23)CC1 [P-0123, N-[(5-chloro-2-pyridyl)methyl]-4-[6-(3-pyridyl)-7H-pyrrolo[2,3-d]pyrimidin-4-yl]piperazine-1-carboxamide] | 0.0001 to 1 µM | 0.0001 to 1 µM |
| CS(=O)(=O)Nc1ccc(-c2ncnc3[nH]c(-c4ccc(F)cc4)cc23)cc1 [P-0432, N-[4-[6-(4-fluorophenyl)-7H-pyrrolo[2,3-d]pyrimidin-4-yl]phenyl]methanesulfonamide] | 0.0001 to 1 µM | 0.0001 to 1 µM |
| C[C@H](NC(=O)N1CCN(c2ncnc3cc(-c4ccc(F)cc4)sc23)CC1(C)C)c1cccc(Cl)c1 [P-0580, N-[(1S)-1-(3-chlorophenyl)ethyl]-4-[6-(4-fluorophenyl)thieno[3,2-d]pyrimidin-4-yl]-2,2-dimethyl-piperazine-1-carboxamide] | 10 to 200 µM | 0.0001 to 1 µM |
| CCc1ccc(S(=O)(=O)NC2CCN(c3ncnc4[nH]c(-c5ccnc(OC)c5)cc34)CC2)cc1 [P-0727, 4-ethyl-N-[1-[6-(2-methoxy-4-pyridyl)-7H-pyrrolo[2,3-d]pyrimidin-4-yl]-4-piperidyl]benzenesulfonamide] | 0.0001 to 1 µM | 0.0001 to 1 µM |
| CC(=O)Nc1cccc(-c2cc3c(N4CCN(C(=O)NCc5ccc(F)cc5)CC4)ncnc3[nH]2)c1 [P-0082, 4-[6-(3-acetamidophenyl)-7H-pyrrolo[2,3-d]pyrimidin-4-yl]-N-[(4-fluorophenyl)methyl]piperazine-1-carboxamide] | 1 to 10 µM | 0.0001 to 1 µM |
| Cc1nn(C)cc1-c1cc2c(N3CCC(NS(=O)(=O)c4ccc(OC(F)(F)F)cc4)CC3)ncnc2[nH]1 [P-0668, N-[1-[6-(1,3-dimethylpyrazol-4-yl)-7H-pyrrolo[2,3-d]pyrimidin-4-yl]-4-piperidyl]-4-(trifluoromethoxy)benzenesulfonamide] | 0.0001 to 1 µM | 0.0001 to 1 µM |
| Cc1cc2c(C3=CCC(NS(=O)(=O)c4ccc(Cl)cc4)CC3)ncnc2[nH]1 (centres unmarked) [P-0729, 4-chloro-N-[4-(6-methyl-7H-pyrrolo[2,3-d]pyrimidin-4-yl)cyclohex-3-en-1-yl]benzenesulfonamide] | 0.0001 to 1 µM | 0.0001 to 1 µM |
| Cc1cc2c(-c3ccc(NS(=O)(=O)c4cc(Cl)c(Cl)s4)cc3)ncnc2[nH]1 [P-0299, 4,5-dichloro-N-[4-(6-methyl-7H-pyrrolo[2,3-d]pyrimidin-4-yl)phenyl]thiophene-2-sulfonamide] | 1 to 10 µM | 1 to 10 µM |
| Cc1nn(C)cc1-c1cc2c(N3CCN(C(=O)N[C@@H](C)c4ccc(Cl)cc4)[C@H](C)C3)ncnc2[nH]1 [P-0718, (2R)-N-[(1S)-1-(4-chlorophenyl)ethyl]-4-[6-(1,3-dimethylpyrazol-4-yl)-7H-pyrrolo[2,3-d]pyrimidin-4-yl]-2-methyl-piperazine-1-carboxamide] | 0.0001 to 1 µM | 0.0001 to 1 µM |
| Cc1cc2c(-c3ccc(NS(=O)(=O)c4cc(F)ccc4F)cc3F)ncnc2[nH]1 [P-0335, 2,5-difluoro-N-[3-fluoro-4-(6-methyl-7H-pyrrolo[2,3-d]pyrimidin-4-yl)phenyl]benzenesulfonamide] | 1 to 10 µM | 1 to 10 µM |
| C[C@H]1CN(c2ncnc3[nH]c(-c4ccncc4)cc23)CCN1 [P-0071, 4-[(3S)-3-methylpiperazin-1-yl]-6-(4-pyridyl)-7H-pyrrolo[2,3-d]pyrimidine] | 10 to 200 µM | 1 to 10 µM |
| Cc1ccc(S(=O)(=O)Nc2ccc(-c3ncnc4[nH]c(-c5ccc(F)cc5)cc34)cc2)cc1 [P-0433, N-[4-[6-(4-fluorophenyl)-7H-pyrrolo[2,3-d]pyrimidin-4-yl]phenyl]-4-methyl-benzenesulfonamide] | 0.0001 to 1 µM | 0.0001 to 1 µM |
| O=C(NCc1ccc(F)cc1)N1CCN(c2ncnc3[nH]cc(-c4ccccc4)c23)CC1 [P-0226, N-[(4-fluorophenyl)methyl]-4-(5-phenyl-7H-pyrrolo[2,3-d]pyrimidin-4-yl)piperazine-1-carboxamide] | 1 to 10 µM | 10 to 200 µM |
| COc1ccc(CCNC(=O)N2CCN(c3ncnc4[nH]ccc34)CC2)cc1 [P-0169, N-[2-(4-methoxyphenyl)ethyl]-4-(7H-pyrrolo[2,3-d]pyrimidin-4-yl)piperazine-1-carboxamide] | 10 to 200 µM | 10 to 200 µM |
